# Columns and labels:
# [1] = test system: MIA PaCa-2 pancreatic tumor xenograft; test: Subcutaneous MIA PaCa-2 pancreatic tumor xenograft therapy study; format: in vivo; conditions: 15 mg/kg IV twice weekly for 28 days
# Description: To determine if the in vitro activity of CM03 was paralleled in vivo, we explored the activity of CM03 in a mouse xenograft model of PDAC. We have previously reported that the maximum tolerated dosage (MTD) for intravenous (IV) administration of MM41 is 25 mg/kg.[33] CM03 was well tolerated, up to a dosage of 45–50 mg/kg, as judged by a dose-escalation MTD study. A therapeutic schedule of two CM03 intravenous (IV) doses was explored using a subcutaneous MIA PaCa-2 pancreatic tumor xenograft model derived from the human cell line used in the cell growth inhibition studies. A group size of eight CD-1 nude mice was used, and dosing was conducted at 10 and 15 mg/kg, each twice weekly, over a period of 4 weeks (28 days: 8 doses). Two further groups were given either MM41 or gemcitabine at 15 mg/kg and received the same dose regimen. […] IVIS imaging of treated mice was performed by taking account of the intrinsic fluorescence of CM03. […] Thus, in contrast to MM41 and gemcitabine, the higher-dose CM03 treatment results in a statistically significant (p < 0.001) antitumor effect, which persisted long after dosing had ceased, up to the termination of the xenograft experiment (62 days).
# For therapy studies, female CD-1 nude mice (2–3 months old, weighing 20–25 g) were injected subcutaneously with 5 × 10^6 MIA PaCa-2 cells in the right flank (unsupplemented RPMI + Matrigel). When the tumors were established (approximately 13 days, mean size 0.05 cm^3), the mice were divided into five treatment groups with eight mice/group. The MM41 and CM03 samples were dissolved directly in saline to the required concentrations and administered IV. Tumor size was measured weekly by calliper using the π-based ellipsoid volume formula (length × width × height × π/6) every 3–4 days, and the mice were also weighed and examined at the same time to determine any signs of toxicity from the drug.
# • Group 1:15 mg/kg of gemcitabine (Sigma), twice weekly dose. • Group 2:15 mg/kg of MM41, twice weekly dose. • Group 3:10 mg/kg of CM03, twice weekly dose. • Group 4:15 mg/kg of CM03, twice weekly dose. • Group 5: saline only, twice weekly dose.
# The xenograft data was analyzed using Student’s t test (GraphPad Inc.). Responses were considered to be significant for those with probabilities (p) less than 5% (p < 0.05). Mice were culled if there was any sign of tumor ulceration, if tumor volume exceeded 1.5 cm^3, or if a weight loss over 20% of initial body weight was observed. Samples of liver, kidney, and spleen from each animal in the CM03 (15 mg/kg) and untreated control groups were excised at the end of the therapy experiment, then fixed in 10% neutral buffered formalin for at least 48 h prior to processing and paraffin embedding. Tissue slices were stained with hematoxylin and eosin and assessed visually for any obvious differences compared with controls, indicative of toxicity and tissue damage. For the imaging study mice were anesthetized using isoflurane and imaged using the IVIS preclinical imaging system from PerkinElmer. Images were captured after 4 h following intravenous administration of CM03 using Cy5.5 excitation for 5 s.
# [2] = Aqueous solubility and pH of the salt; format: physicochemical; conditions: formate salt
# Source text: The synthetic approach to the trisubstituted series adapts previously published procedures to simplify purification and increase yields of both intermediates and final compounds (Scheme 1). 5,5-Dimethyl-1,3-dibromohydantoin was used for the regioselective bromination of the starting material, enabling more efficient and convenient purification. The separation of final products was achieved using column chromatography, giving a 26% overall yield for CM03.
# CM03 was then converted to a mixed hydrochloride/formate salt in order to enhance its aqueous solubility. At a concentration of 5 mg/mL, the pH of the CM03 salt solution was 6.95.
# PDAC PANC-1 cells = test: 96 h SRB growth inhibition assay, PANC-1; format: cell-based; conditions: Homo sapiens
# Description: (§1) Compounds were screened with a 96 h SRB (sulforhodamine B) assay for their antiproliferative activity in a panel of human cancer cell lines comprising lung adenocarcinoma (A549), breast adenocarcinoma (MCF7), and PDAC (MIA PaCa-2 and PANC-1) cell lines, as well as a fetal lung fibroblast-like nononcogenic control cell line (WI-38) (Figure 1f). […] Gemcitabine is also active in these lines at low nanomolar levels, although less so in MIA PaCa-2 (IC50 19 ± 5 nM) and more so in BX-PC3 cells (6 ± 2 nM).
# (§2) All cell lines were purchased from ATCC and maintained in appropriate medium supplemented with 10% fetal bovine serum (Invitrogen, UK), 2 mM L-glutamine (Invitrogen, Netherlands), and other components as specified by the suppliers. Cell lines were maintained at 37 °C, 5% CO2, and routinely passaged. Drugs were dissolved in H2O and filtered through 0.22 μm pore-size filter units (stock 10 mM) before addition to appropriate cell line media. Cellular growth inhibition was measured using the sulforhodamine B (SRB) assay in 96-well plates as described previously.[78] The 50% inhibitory concentrations (IC50) were determined by taking the mean absorbance at 540 nm for each drug concentration expressed as a percentage of the absorbance of untreated control wells.
# [3] = test system: MIA PaCa-2 pancreatic tumor xenograft; design: method as in PMID 26077929; conditions: cited from earlier work
# [4] = test system: breast adenocarcinoma (MCF7); test: 96 h SRB growth inhibition assay, MCF7; format: cell-based; conditions: Homo sapiens
# Description: as §1, §2
# hERG = hERG (Homo sapiens, UniProt Q12809); test: hERG liability (unpublished data)
# Chain of hERG (Q12809 whole entry): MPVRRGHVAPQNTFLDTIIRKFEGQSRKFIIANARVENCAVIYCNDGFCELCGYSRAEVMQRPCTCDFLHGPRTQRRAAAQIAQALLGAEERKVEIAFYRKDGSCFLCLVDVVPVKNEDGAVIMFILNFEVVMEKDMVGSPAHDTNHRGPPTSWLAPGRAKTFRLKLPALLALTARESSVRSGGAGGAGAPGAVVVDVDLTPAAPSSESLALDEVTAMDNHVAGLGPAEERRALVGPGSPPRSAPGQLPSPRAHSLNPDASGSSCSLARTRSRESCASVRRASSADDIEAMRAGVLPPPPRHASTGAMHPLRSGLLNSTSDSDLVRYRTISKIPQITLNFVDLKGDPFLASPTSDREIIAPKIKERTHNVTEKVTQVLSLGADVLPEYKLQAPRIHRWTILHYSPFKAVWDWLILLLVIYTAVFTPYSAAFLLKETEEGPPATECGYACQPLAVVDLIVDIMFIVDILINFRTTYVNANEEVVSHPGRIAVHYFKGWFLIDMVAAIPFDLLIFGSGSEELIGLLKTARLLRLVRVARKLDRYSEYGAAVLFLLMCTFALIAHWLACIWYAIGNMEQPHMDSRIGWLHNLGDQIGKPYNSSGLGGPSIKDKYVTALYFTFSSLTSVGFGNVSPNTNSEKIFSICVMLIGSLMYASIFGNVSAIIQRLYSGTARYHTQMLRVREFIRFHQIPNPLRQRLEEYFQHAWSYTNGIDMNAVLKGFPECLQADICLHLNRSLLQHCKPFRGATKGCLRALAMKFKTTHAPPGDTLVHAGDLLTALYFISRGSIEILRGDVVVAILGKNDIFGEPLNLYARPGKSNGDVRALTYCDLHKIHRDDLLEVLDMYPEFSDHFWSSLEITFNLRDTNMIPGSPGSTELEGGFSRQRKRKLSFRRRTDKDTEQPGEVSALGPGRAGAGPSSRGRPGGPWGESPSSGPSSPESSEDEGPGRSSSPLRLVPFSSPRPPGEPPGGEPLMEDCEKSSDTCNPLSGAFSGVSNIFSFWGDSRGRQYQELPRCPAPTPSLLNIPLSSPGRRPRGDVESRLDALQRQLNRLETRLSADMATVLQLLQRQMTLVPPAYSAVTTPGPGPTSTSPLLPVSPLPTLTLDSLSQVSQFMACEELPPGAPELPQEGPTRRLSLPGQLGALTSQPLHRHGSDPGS
# [5] = test system: fetal lung fibroblast-like nononcogenic control cell line (WI-38); test: 96 h SRB growth inhibition assay, WI-38; format: cell-based, human; conditions: Homo sapiens, WI-38; SMILES csv supplement; read-out: WI-30 IC50
# Description: as §1, §2
smiles,measurement,setting,value
"CN1CCN(CCCNc2cc3c4c(c(NCCCN5CCN(C)CC5)cc5c4c2C(=O)N(CCCN2CCOCC2)C5=O)C(=O)N(CCCN2CCOCC2)C3=O)CC1 [MM41, 4,9-bis((3-(4-methylpiperazin-1-yl)propyl)amino)-2,7-bis(3-morpholinopropyl)benzo[lmn][3,8]phenanthroline-1,3,6,8(2H,7H)-tetraone, reference compound]",MTV ± SEM (Day 29),[1],0.05 ± 0.02 cm^3
same,MTV ± SEM (Day 62),[1],0.26 ± 0.14 cm^3
same,water solubility,[2],freely water-soluble
same,IC50,PDAC PANC-1 cells,3 ± 1 nM
same,reduction of tumor volume in a PDAC xenograft model,[3],~80%
same,IC50,[4],70 ± 10 nM
same,hERG liabilities,hERG,neither MM41 nor CM03 show significant hERG liabilities
same,IC50,[5],230 ± 50 nM

# Source: paper PMC5867665, “Targeting Multiple Effector Pathways in Pancreatic Ductal Adenocarcinoma with a G-Quadruplex-Binding Small Molecule” (Journal of Medicinal Chemistry, 2018)
